Experimental data published in patent US8592421B2, “Cyclic bioisosters of purine system derivatives and a pharmaceutical composition based thereon” (priority 2003, dated 2013).

Experiments:
[1] = system: synthase of nitrogen oxide (NOC); assay: Morphine abstinence model: activity of synthase of nitrogen oxide (NOC), radiometric [3H]L-citrulline method; format: in vivo, rats Wistar; details: morphinized rats (FIG. 13)
[2] = system: Ca^2+-dependent isoform NOC; assay: Morphine abstinence model: calcium-dependent NOC in liver; format: in vivo, rats Wistar; details: administration of morphine (FIG. 13)
[3] = system: Ca^2+-independent isoform NOC; assay: Morphine abstinence model: calcium-independent NOC in liver; format: in vivo, rats Wistar; details: administration of morphine (FIG. 13)
[4] = Morphine abstinence model: thymus condition (mass, nitrites); format: in vivo, rats; details: Administration of morphine; control 230 ± 14
Description: The spectrometric method is based the reaction of nitrites with the Griss reagent (a mixture of 2% solution of sulfanilamide and 0.2% N-(1-naphthyl)ethylene diamine. At the first step the nitrite reacts with sulfanilamide with formation of diazonium salt, and then with the second component to form azo dye with an adsorption maximum at 540 nm. For reduction of nitrates into nitrites, a fermentative method was used with bacterial reductase nitrate (Grisham M. B. et al., 1995). The samples of plasma and supernathant of the liver deproteinizated at 100° C. for 5 minutes incubated for 30 minutes at 37° C. in 50.0 mM of HEPES pH 7.4 in the presence of 0.2 unit/ml of Aspergillus reductase nitrate, 5.0 mkM of FAD and 0.1 mM of NAD-Ph. At the end of the reaction lactate dehydrogenase and pyruvate were added for isolation of NAD-Ph interfering with the Griss reaction. Then the Griss reagent was added and after 10-minute incubation the light absorption of the samples was measured at 540 nm. To amount of NOX^− was calculated using sodium nitrate as a standard.
The effect of the compounds according to the invention on the condition of the thymus of the rats was also investigated: a control group, an experimental group of morphinized animals and an experimental group of animals were first morphinized and then injected with the compounds according to the invention. The experiment was carried out similarly to that described above.

CN1CC[C@]23c4c5ccc(O)c4O[C@H]2[C@@H](O)C=C[C@H]3[C@H]1C5 [Morphine, morphine, reference compound]
total NOC activity in the liver compared to the control [1]: did not change | activity of the calcium-dependent form NOC in the liver [2]: rise of activity | activity of the calcium-independent form NOC in the liver [3]: decrease of activity | Thymus mass [4]: 145 ± 9 mg
